# Key:
# [1] = target: IRAK4 (Homo sapiens (Human), UniProt Q9NWZ3); experiment: IRAK4 Inhibition Assay; format: biochemical; settings: ATP 500 μM; IRAK4 0.6 nM; 60 min room temperature; Caliper LABCHIP 3000
# [2] = test system: Human whole blood; experiment: IRAK4 Whole Blood Assay (IL-6 levels after stimulation with TLR2 agonist lipoteichoic acid); format: cell-based; settings: 10 μg/mL lipoteichoic acid, 5 hours
# Summary of the method: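 ACD-A anticoagulated human whole blood preincubated with compound 60 min at 37 °C, 5% CO2, then stimulated 5 h with lipoteichoic acid at 10 μg/mL final. IL-6 in supernatants measured by flow cytometry bead assay.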
# Chain of IRAK4 (Q9NWZ3 whole entry, species assumed): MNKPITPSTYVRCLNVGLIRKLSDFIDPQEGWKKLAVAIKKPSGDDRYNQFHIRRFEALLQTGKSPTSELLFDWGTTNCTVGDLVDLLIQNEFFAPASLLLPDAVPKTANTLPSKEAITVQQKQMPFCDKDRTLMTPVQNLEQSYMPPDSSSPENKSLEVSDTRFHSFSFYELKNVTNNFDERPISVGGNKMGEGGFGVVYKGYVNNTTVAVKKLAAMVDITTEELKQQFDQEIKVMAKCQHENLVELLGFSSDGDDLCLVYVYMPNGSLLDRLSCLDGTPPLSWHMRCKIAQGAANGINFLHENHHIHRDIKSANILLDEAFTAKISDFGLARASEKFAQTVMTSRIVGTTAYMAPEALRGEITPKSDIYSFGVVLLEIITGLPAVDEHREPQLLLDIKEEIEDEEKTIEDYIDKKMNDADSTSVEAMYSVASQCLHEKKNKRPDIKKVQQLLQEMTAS
Structure (SMILES),IC50 [1],EC50 [2]
"CC(=O)N[C@H]1CC[C@H](NC(=O)c2cnc3ccc(-c4cncs4)nc3c2NC(C)C)CC1 [Example 156, N-((1r,4r)-4-acetamidocyclohexyl)-4-(isopropylamino)-6-(thiazol-5-yl)-1,5-naphthyridine-3-carboxamide]",4.3 nM,662 nM
"CC(C)Nc1c(C(=O)NC[C@@H](F)C(C)(C)O)nnc2ccc(-c3cn[nH]c3)cc12 [Example 158, (R)—N-(2-fluoro-3-hydroxy-3-methylbutyl)-4-(isopropylamino)-6-(1H-pyrazol-4-yl) cinnoline-3-carboxamide]",1.6 nM,802 nM
"CC(C)Nc1c(C(=O)NCC2CCS(=O)(=O)C2)nnc2ccc(-c3cn[nH]c3)cc12 (centres unmarked) [Example 159, N-((1,1-dioxidotetrahydrothiophen-3-yl)methyl)-4-(isopropylamino)-6-(1H-pyrazol-4-yl)cinnoline-3-carboxamide]",4.7 nM,556 nM
"CC(C)Nc1c(C(=O)NCCN2CCS(=O)(=O)CC2)nnc2ccc(-c3cn[nH]c3)cc12 [Example 160, N-(2-(1,1-dioxidothiomorpholino)ethyl)-4-(isopropylamino)-6-(1H-pyrazol-4-yl)cinnoline-3-carboxamide]",2.7 nM,2090 nM

# Source: US12492186B2, “Bicyclic heterocyclic compounds useful as IRAK4 inhibitors” (BRISTOL-MYERS SQUIBB COMPANY, priority 2019, dated 2025)
